Tests used:
rumen fluid = test: In vitro rumen fluid incubation (18 h): volatile fatty acids and methane inhibition; format: cell-based, sheep; settings: 39° C.; for C2 (acetate), Ratio Treated to Control / C3 (propionate), Ratio Treated to Control / C4 (butyrate), Ratio Treated to Control / Total VFA, Ratio Treated to Control: 50.0 ppm, pH 7.0; for inhibition at 50 ppm: Ovis aries, vs negative control
Method: Below is set forth the procedure followed for testing the compounds of the present invention in vitro. For these studies, rumen fistulated sheep were fed a concentrate diet which constituted 3 parts chopped corn and cob and 1 part alfalfa pellets.
1. Rumen fluid was removed from a fistulated sheep and strained through 4 layers of cheese cloth to remove large feed particles.
2. One part rumen fluid was added to 3 parts of modified McDougal's Artificial Saliva, the pH was adjusted to 7.0 and the saliva solution was prewarmed to 39° C. in a water bath and gassed with CO2.
(a) Modified McDougal Artificial Saliva composition:
To prepare (a), (i) 9.8 g NaHCO3, 11.7 g KHCO3, 5.1 g NaH2 PO4 and 4.08 g KH2 PO4 were diluted with two (2) liters of distilled H2 O; (ii) 20 mL of 100X salt solution was diluted to 1.33 l with tap H2 O; and (iii) mix (i) with (ii) to prepare the modified McDougal Artificial Saliva.
3. Add 0.01 g concentrate feed/1 mL of buffered rumen fluid (the buffered rumen fluid with concentrate should be stirred at all times to prevent the concentrate from settling).
4. Dispense 20 mL of buffered rumen fluid into 30 mL serum bottles that are being gassed with CO2. (A manifold that gases 12 bottles at a time was used.) The bottles should be in a 39° C. H2 O bath.
5. The test compounds, i.e., the compounds of the present invention, were first added to the bottles. After the addition of the buffered rumen fluid to all 12 bottles, the gassing cannulae were quickly removed and a butyl rubber stopper was inserted in each bottle. An aluminum seal was then placed on each bottle and crimped tight.
6. The sealed bottles were removed from the water bath, shaken and placed in a 39° C. incubator for 18 hours.
7. After the 18-hour incubation, the bottles were removed from the incubator and the head space gas was analyzed using a gas partitioner.
8. Four mL of rumen fluid was removed from each bottle for volatile fatty acid (VFA) analysis.
(a) The 4 mL sample was added to a centrifuge tube to which had previously been added 0.04 mL of 50 percent H2 SO4 and 1 mL 2-ethylbutyric acid (concentration 2 mL of 2-ethylbutyric acid/500 mL H2 O v/v).
(b) The mixture from (a) was centrifuged at 10000 xg for 20 minutes.
(c) The supernatant was removed and analyzed by gas-liquid chromatography. The above procedures were followed in all trials for testing the compounds of the present invention.

[1] = test system: propionate production in the rumen; settings: oral administration to ruminants, Raun patents; cited from earlier work
rumen = test: In vivo rumen VFA trial in rumen fistulated sheep (90 days); settings: 90 day trial average
Description: Eight rumen fistulated sheep were used as test animals. Two sheep were alotted to each of three treatments and a control for each test. Group I was always the control group in each of the different trials. Groups II through IV had varying concentrations of compounds of the present invention added to the animals' feed. The feed ration in each trial constituted 3 parts chopped corn and cob and 1 part alfalfa pellets. Each sheep was offered 800 g daily of the feed in two equal portions. The particular compound and vitamin premix were mixed with chopped corn and cob. Any feed refusals were weighed back before each feeding and discarded. To prevent any mold growth, the feed was stored under refrigeration.
All animals in the various treatment groups were sampled for VFA's twice a week. Equal volumes of rumen fluid from each animal within a treatment were pooled for treatment VFA analysis. Fluid from individual animals was also analyzed for VFA. Individual animal VFA's within a treatment were averaged. This value was then averaged with pooled treatment VFA yielding the final treatment VFA value. All ratios and statistics were calculated using this final value. VFA's were calculated as the ratio treated to its respective pretreatment value. Each of the trials lasted for 90 days.

[2] = Table II, Group II, level 0.01 % of feed
[3] = Table II, Group III, level 0.05 % of feed (approx. 60 ppm in rumen)
[4] = Table II, Group IV, level 0.025 % of feed
[5] = Table III, Group II, level 0.05 % of feed (approx. 60 ppm in rumen)
[6] = Table III, Group III, level 0.075 % of feed
[7] = Table III, Group IV, level 0.025 % of feed

In the case of `BrCCc1nnn[nH]1` [TCH2 CH2 Br], the “C2 (acetate), Ratio Treated to Control” value (rumen fluid) is reported as 0.73, the “C3 (propionate), Ratio Treated to Control” value (rumen fluid) is reported as 1.44 and the “C4 (butyrate), Ratio Treated to Control” value (rumen fluid) is reported as 1.25. For the same compound, the “Total VFA, Ratio Treated to Control” value (rumen fluid) was 0.91 and the inhibition at 50 ppm (rumen fluid) was 91.3%.

For `CS(=O)(=O)NCCC#N` [CNCH2 CH2 NHSO2 CH3], the “C2 (acetate), Ratio Treated to Control” value (rumen fluid) was 0.7, the “C3 (propionate), Ratio Treated to Control” value (rumen fluid) was 1.58 and the “C4 (butyrate), Ratio Treated to Control” value (rumen fluid) was 1.13. For the same compound, the “Total VFA, Ratio Treated to Control” value (rumen fluid) was 0.97 and the inhibition at 50 ppm (rumen fluid) was 73.4%.

For `CO[C@H]1CC[C@@H](O[C@H]2C[C@H]([C@]3(C)CC[C@]4(C[C@H](O)[C@@H](C)[C@@H]([C@@H](C)/C=C(\C)C(=O)[C@H](C)C[C@H](C)C(=O)O)O4)O3)O[C@]3(O[C@@H]([C@H]4O[C@@](O)(CO)[C@H](C)C[C@@H]4C)C[C@@H]3C)[C@@H]2C)O[C@@H]1C` [dianemycin], the “propionate production (in words)” value [1] is given as “propionate production could be increased”.

With `Cc1ccc(S(=O)(=O)OCCc2nnn[nH]2)cc1` the “C2 (acetate), Ratio Treated to Control” value (rumen fluid) was 0.92, the “C3 (propionate), Ratio Treated to Control” value (rumen fluid) was 1.23 and the “C4 (butyrate), Ratio Treated to Control” value (rumen fluid) was 0.95. The “Total VFA, Ratio Treated to Control” value (rumen fluid) was 1.07 and the inhibition at 50 ppm (rumen fluid) was 8%.

With `O=C(CCl)NCCc1nnn[nH]1` the “C2 (acetate), Ratio Treated to Control” value (rumen fluid) was 0.91, the “C3 (propionate), Ratio Treated to Control” value (rumen fluid) was 1.16 and the “C4 (butyrate), Ratio Treated to Control” value (rumen fluid) was 1.05. For the same compound, the “Total VFA, Ratio Treated to Control” value (rumen fluid) was 1.02 and the inhibition at 50 ppm (rumen fluid) was 4.9%.

For `C=C(NC(=O)C(=C)NC(=O)c1csc(C2=N[C@@H]3c4csc(n4)[C@H]4NC(=O)c5csc(n5)[C@H]([C@](C)(O)[C@@H](C)O)NC(=O)[C@H]5CSC(=N5)/C(=C/C)NC(=O)[C@H]([C@@H](C)O)NC(=O)c5csc(n5)[C@]3(CC2)NC(=O)[C@H](C)NC(=O)C(=C)NC(=O)[C@H](C)NC(=O)[C@H]([C@@H](C)CC)N[C@@H]2C=Cc3c([C@H](C)O)cc(nc3[C@H]2O)C(=O)O[C@@H]4C)n1)C(N)=O` [thiostrepton], the “propionate production (in words)” value [1] is given as “propionate production could be increased”.

In the case of `CC[C@@]1([C@@H]2O[C@@H]([C@H]3O[C@@](O)(CO)[C@H](C)C[C@@H]3C)C[C@@H]2C)CC[C@H]([C@]2(C)CC[C@]3(C[C@H](O)[C@@H](C)[C@@H]([C@@H](C)[C@@H](OC)[C@H](C)C(=O)O)O3)O2)O1` [monensin], the “propionate production (in words)” value [1] is given as “propionate production could be increased”.

With `ClCc1nnn[nH]1` [TCH2 Cl, 5-Chloromethyltetrazole] the “C2 (acetate), Ratio Treated to Control” value (rumen fluid) was 0.74, the “C3 (propionate), Ratio Treated to Control” value (rumen fluid) was 1.49 and the “C4 (butyrate), Ratio Treated to Control” value (rumen fluid) was 0.95. The “Total VFA, Ratio Treated to Control” value (rumen fluid) was 0.96, the inhibition at 50 ppm (rumen fluid) was 96.8% and the “C2 (acetate), Ratio of Treatment VFA to Pretreatment VFA” value (from here on “C2 (acetate), Ratio of Treatment VFA”) (rumen; [2]) was 1.01. For the same compound, the “C3 (propionate), Ratio of Treatment VFA to Pretreatment VFA” value (from here on “C3 (propionate), Ratio of Treatment VFA”) (rumen; [2]) was 0.98, the “C4 (butyrate), Ratio of Treatment VFA to Pretreatment VFA” value (“C4 (butyrate), Ratio of Treatment VFA” for short) (rumen; [2]) was 1.02 and the “Total VFA, Ratio of Treatment VFA to Pretreatment VFA” value (shortened to “Total VFA, Ratio of Treatment VFA”) (rumen; [2]) was 0.96. The “C2 (acetate), Ratio of Treatment VFA” value (rumen; [3]) was 0.97, the “C3 (propionate), Ratio of Treatment VFA” value (rumen; [3]) was 1.05 and the “C4 (butyrate), Ratio of Treatment VFA” value (rumen; [3]) was 1.04. The “Total VFA, Ratio of Treatment VFA” value (rumen; [3]) was 0.88, the “C2 (acetate), Ratio of Treatment VFA” value (rumen; [4]) was 0.96 and the “C3 (propionate), Ratio of Treatment VFA” value (rumen; [4]) was 1.10. For the same compound, the “C4 (butyrate), Ratio of Treatment VFA” value (rumen; [4]) was 1.05 and the “Total VFA, Ratio of Treatment VFA” value (rumen; [4]) was 0.93.

In the case of `ClCCc1nnn[nH]1` [TCH2 CH2 Cl, 5-(2-Chloroethyl)Tetrazole], the “C2 (acetate), Ratio Treated to Control” value (rumen fluid) is reported as 0.76, the “C3 (propionate), Ratio Treated to Control” value (rumen fluid) is reported as 1.48 and the “C4 (butyrate), Ratio Treated to Control” value (rumen fluid) is reported as 0.92. The “Total VFA, Ratio Treated to Control” value (rumen fluid) was 1.03, the inhibition at 50 ppm (rumen fluid) was 74.6% and the “C2 (acetate), Ratio of Treatment VFA” value (rumen; [5]) was 0.97. The “C3 (propionate), Ratio of Treatment VFA” value (rumen; [5]) was 1.06, the “C4 (butyrate), Ratio of Treatment VFA” value (rumen; [5]) was 1.11 and the “Total VFA, Ratio of Treatment VFA” value (rumen; [5]) was 0.88. For the same compound, the “C2 (acetate), Ratio of Treatment VFA” value (rumen; [6]) was 0.92, the “C3 (propionate), Ratio of Treatment VFA” value (rumen; [6]) was 1.24 and the “C4 (butyrate), Ratio of Treatment VFA” value (rumen; [6]) was 1.05. The “Total VFA, Ratio of Treatment VFA” value (rumen; [6]) was 0.89, the “C2 (acetate), Ratio of Treatment VFA” value (rumen; [7]) was 0.97 and the “C3 (propionate), Ratio of Treatment VFA” value (rumen; [7]) was 1.00. The “C4 (butyrate), Ratio of Treatment VFA” value (rumen; [7]) was 1.20 and the “Total VFA, Ratio of Treatment VFA” value (rumen; [7]) was 1.05.

In the case of `CS(=O)(=O)NCCc1nnn[nH]1` [TCH2 CH2 NHSO2 CH3], the “C2 (acetate), Ratio Treated to Control” value (rumen fluid) is reported as 0.99, the “C3 (propionate), Ratio Treated to Control” value (rumen fluid) is reported as 1.04 and the “C4 (butyrate), Ratio Treated to Control” value (rumen fluid) is reported as 0.99. For the same compound, the “Total VFA, Ratio Treated to Control” value (rumen fluid) was 1.02 and the inhibition at 50 ppm (rumen fluid) was 0.7%.

From patent US4461772A, “Additives for improving ruminant feed utilization” (SDS Biotech Corporation, priority 1983, dated 1984)
